These results are taken from US12319701B2, “Antagonists of the muscarinic acetylcholine receptor M4” (priority 2019, dated 2025).

This assay has as its target T1, Human M4 (Homo sapiens, UniProt P08173).
T1 construct: expressed in transfected cells; host or cells: CHO-K1 (ATCC), stably co-expressing chimeric G protein Gqi5
T1 sequence (P08173 1-479): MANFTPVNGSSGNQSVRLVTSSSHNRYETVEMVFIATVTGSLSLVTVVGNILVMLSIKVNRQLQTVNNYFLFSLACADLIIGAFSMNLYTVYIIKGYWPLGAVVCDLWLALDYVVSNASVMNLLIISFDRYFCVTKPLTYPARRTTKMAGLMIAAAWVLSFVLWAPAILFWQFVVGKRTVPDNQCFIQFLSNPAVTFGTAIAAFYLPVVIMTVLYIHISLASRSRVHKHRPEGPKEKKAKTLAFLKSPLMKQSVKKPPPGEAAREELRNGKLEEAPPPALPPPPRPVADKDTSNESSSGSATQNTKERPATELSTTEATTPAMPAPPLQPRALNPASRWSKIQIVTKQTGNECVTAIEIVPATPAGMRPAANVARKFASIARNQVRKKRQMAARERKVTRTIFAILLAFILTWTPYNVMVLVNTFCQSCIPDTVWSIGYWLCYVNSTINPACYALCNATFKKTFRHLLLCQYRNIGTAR
The experiment in a line: mAChR M4 cell-based functional assay (calcium flux, Fluo-4, M4/Gqi5/CHO-K1 cells). To be noted: for remaining activity at 30 µM: CHO-K1, read-out: Human M4 Emin (%), % ACh maximum at 30 μM. Here is the method: Human or rat M4 cDNA, along with the chimeric G protein Gqi5, were transfected into Chinese hamster ovary (CHO-K1) cells purchased from the American Type Culture Collection using Lipofectamine2000. M4/Gqi5/CHO cells were grown in Ham's F-12 medium containing 10% heat-inactivated fetal bovine serum (FBS), 20 mM HEPES, 500 μg/mL 418 sulfate, and 200 μg/mL Hygromycin B.
For high throughput measurement of agonist-evoked increases in intracellular calcium, CHO-K1 cells stably expressing muscarinic receptors were plated in growth medium lacking 418 and hygromycin at 15,000 cells/20 μL/well in Greiner 384-well black-walled, tissue culture (TC)-treated, clear-bottom plates (VWR). Cells were incubated overnight at 37° C. and 5% CO2. The next day, cells were washed using an ELX 405 (BioTek) with assay buffer; the final volume was then aspirated to 20 μL. Next, 20 μL of a 2.3 μM stock of Fluo-4/acetoxymethyl ester (Invitrogen, Carlsbad, CA), prepared as a 2.3 mM stock in DMSO and mixed in a 1:1 ratio with 10% (w/v) Pluronic F-127 and diluted in assay buffer, was added to the wells and the cell plates were incubated for 50 min at 37° C. and 5% CO2. Dye was removed by washing with the ELX 405 and the final volume was aspirated to 20 μL. Compound master plates were formatted in a 10 point concentration-response curve (CRC) format (1:3 dilutions) in 100% DMSO with a starting concentration of 10 or 1 mM using a BRAVO liquid handler (Agilent). Test compound CRCs were then transferred to daughter plates (240 nL) using the Echo acoustic plate reformatter (Labcyte, Sunnyvale, CA) and then diluted into assay buffer (40 μL) to a 2× stock using a Thermo Fisher Combi (Thermo Fisher Scientific, Waltham, MA).
Calcium flux was measured using the Functional Drug Screening System (FDSS) 6000 or 7000 (Hamamatsu Corporation, Tokyo, Japan) as an increase in the fluorescent static ratio. Compounds were applied to cells (20 μL, 2×) using the automated system of the FDSS at 2 seconds into the protocol and the data were collected at 1 Hz. At 143 s, 10 μL of an EC20 concentration of the muscarinic receptor agonist acetylcholine was added (5×), followed by the addition of 12 μL of an EC80 concentration of acetylcholine at the 268 s time point (5×). Agonist activity was analyzed as a concentration-dependent increase in calcium mobilization upon compound addition. Positive allosteric modulator activity was analyzed as a concentration-dependent increase in the EC20 acetylcholine response. Antagonist activity was analyzed as a concentration-dependent decrease in the ECK) acetylcholine response; for the purposes of the tables herein, an IC50 (inhibitory concentration 50) was calculated as a concentration-dependent decrease of the response elicited by an ECK) concentration of acetylcholine. Concentration-response curves were generated using a four-parameter logistical equation in XLFit curve fitting software (IDBS, Bridgewater, NJ) for Excel (Microsoft, Redmond, WA) or Prism (GraphPad Software, Inc., San Diego, CA) or the Dotmatics software platform (Dotmatics, Bishop's Stortford, UK).
Compounds were synthesized as described above. Activity (IC50 and Emin) was determined in the mAChR M4 cell-based functional assay as described above and the data are shown in Table 2.
A general note: A change in cytosolic calcium serves as a functional read-out for many receptors and channels.

A word on the IC50: it is the concentration that gives 50% inhibition. `Clc1nnc(N[C@H]2C[C@@H]3CN(CC4CCOCC4)C[C@@H]3C2)c2ccsc12` [compound 1, 7-chloro-N-((3aR,5s,6aS)-2-((tetrahydro-2H-pyran-4-yl)methyl)octahydrocyclopenta[c]pyrrol-5-yl)thieno[2,3-d]pyridazin-4-amine]: the IC50 stood at 204 nM and the remaining activity at 30 µM is 3%.

Consider `Fc1ccc(F)c(-c2nnc(N[C@H]3C[C@@H]4CN(CC5CCOCC5)C[C@@H]4C3)c3ccsc23)c1` [compound 2, 7-(2,5-difluorophenyl)-N-((3aR,5s,6aS)-2-((tetrahydro-2H-pyran-4-yl)methyl)octahydrocyclopenta[c]pyrrol-5-yl)thieno[2,3-d]pyridazin-4-amine], for which the IC50 was determined as 2.91 nM and the remaining activity at 30 µM came out at 3%.

As for `Cc1ccc(F)cc1-c1nnc(N[C@H]2C[C@@H]3CN(CC4CCOCC4)C[C@@H]3C2)c2ccsc12` [compound 3, 7-(5-fluoro-2-methylphenyl)-N-((3aR,5s,6aS)-2-((tetrahydro-2H-pyran-4-yl)methyl)octahydrocyclopenta[c]pyrrol-5-yl)thieno[2,3-d]pyridazin-4-amine], the IC50 worked out at 5.11 nM and the remaining activity at 30 µM was 3%.

For the compound `Cc1ccc(C)c(-c2nnc(N[C@H]3C[C@@H]4CN(CC5CCOCC5)C[C@@H]4C3)c3ccsc23)c1` [compound 4, 7-(2,5-dimethylphenyl)-N-((3aR,5s,6aS)-2-((tetrahydro-2H-pyran-4-yl)methyl)octahydrocyclopenta[c]pyrrol-5-yl)thieno[2,3-d]pyridazin-4-amine], the IC50 was determined as 13.6 nM and the remaining activity at 30 µM turned out to be 3%.

For the compound `Cc1ccccc1-c1nnc(N[C@H]2C[C@@H]3CN(CC4CCOCC4)C[C@@H]3C2)c2ccsc12` [compound 5, N-((3aR,5s,6aS)-2-((tetrahydro-2H-pyran-4-yl)methyl)octahydrocyclopenta[c]pyrrol-5-yl)-7-(o-tolyl)thieno[2,3-d]pyridazin-4-amine], the IC50 is 2.47 nM and the remaining activity at 30 µM is 4%.

For the compound `COc1ccccc1-c1nnc(N[C@H]2C[C@@H]3CN(CC4CCOCC4)C[C@@H]3C2)c2ccsc12` [compound 6, 7-(2-methoxyphenyl)-N-((3aR,5s,6aS)-2-((tetrahydro-2H-pyran-4-yl)methyl)octahydrocyclopenta[c]pyrrol-5-yl)thieno[2,3-d]pyridazin-4-amine], the half-inhibitory concentration (IC50) turned out to be 8080 nM and the remaining activity at 30 µM amounted to 20%.

In the case of `Fc1ccccc1-c1nnc(N[C@H]2C[C@@H]3CN(CC4CCOCC4)C[C@@H]3C2)c2ccsc12` [compound 7, 7-(2-fluorophenyl)-N-((3aR,5s,6aS)-2-((tetrahydro-2H-pyran-4-yl)methyl)octahydrocyclopenta[c]pyrrol-5-yl)thieno[2,3-d]pyridazin-4-amine], the IC50 was 7690 nM and the remaining activity at 30 µM was found to be 15%.

On to `c1ccc(-c2nnc(N[C@H]3C[C@@H]4CN(CC5CCOCC5)C[C@@H]4C3)c3ccsc23)cc1` [compound 8, 7-phenyl-N-((3aR,5s,6aS)-2-((tetrahydro-2H-pyran-4-yl)methyl)octahydrocyclopenta[c]pyrrol-5-yl)thieno[2,3-d]pyridazin-4-amine], for which the 50% inhibitory concentration (IC50) is 4.72 nM and the remaining activity at 30 µM is 3%.

Take `Cn1cc2cc(-c3nnc(N[C@H]4C[C@@H]5CN(CC6CCOCC6)C[C@@H]5C4)c4ccsc34)ccc2n1` [compound 9, 7-(2-methyl-2H-indazol-5-yl)-N-((3aR,5s,6aS)-2-((tetrahydro-2H-pyran-4-yl)methyl)octahydrocyclopenta[c]pyrrol-5-yl)thieno[2,3-d]pyridazin-4-amine]: the IC50 worked out at 2.96 nM and the remaining activity at 30 µM stood at 3%.

`Fc1ccc(F)c(-c2nnc(N[C@H]3C[C@@H]4CN(CC5CCOCC5)C[C@@H]4C3)c3sccc23)c1` [compound 10, 4-(2,5-difluorophenyl)-N-((3aR,5s,6aS)-2-((tetrahydro-2H-pyran-4-yl)methyl)octahydrocyclopenta[c]pyrrol-5-yl)thieno[2,3-d]pyridazin-7-amine]: the IC50 worked out at 6.25 nM and the remaining activity at 30 µM is 4%.

With `Cc1ccc(F)cc1-c1nnc(N[C@H]2C[C@@H]3CN(CC4CCOCC4)C[C@@H]3C2)c2sccc12` [compound 11, 4-(5-fluoro-2-methylphenyl)-N-((3aR,5s,6aS)-2-((tetrahydro-2H-pyran-4-yl)methyl)octahydrocyclopenta[c]pyrrol-5-yl)thieno[2,3-d]pyridazin-7-amine], the IC50 came out at 1.6 nM and the remaining activity at 30 µM came out at 3%.

Regarding `Clc1nnc(N[C@H]2C[C@@H]3CN(CC4CCOCC4)C[C@@H]3C2)c2sccc12` [compound 12, 4-chloro-N-((3aR,5s,6aS)-2-((tetrahydro-2H-pyran-4-yl)methyl)octahydrocyclopenta[c]pyrrol-5-yl)thieno[2,3-d]pyridazin-7-amine], the IC50 turned out to be 284 nM and the remaining activity at 30 µM came out at 5%.

With `Cn1cc2cc(-c3nnc(N[C@H]4C[C@@H]5CN(CC6CCOCC6)C[C@@H]5C4)c4sccc34)ccc2n1` [compound 13, 4-(2-methyl-2H-indazol-5-yl)-N-((3aR,5s,6aS)-2-((tetrahydro-2H-pyran-4-yl)methyl)octahydrocyclopenta[c]pyrrol-5-yl)thieno[2,3-d]pyridazin-7-amine], the IC50 is 0.697 nM and the remaining activity at 30 µM came out at 3%.

Turning to `c1ccc(-c2nnc(N[C@H]3C[C@@H]4CN(CC5CCOCC5)C[C@@H]4C3)c3sccc23)cc1` [compound 14, 4-phenyl-N-((3aR,5s,6aS)-2-((tetrahydro-2H-pyran-4-yl)methyl)octahydrocyclopenta[c]pyrrol-5-yl)thieno[2,3-d]pyridazin-7-amine], the IC50 stood at 1.46 nM and the remaining activity at 30 µM worked out at 4%.

Consider `Fc1ccccc1-c1nnc(N[C@H]2C[C@@H]3CN(CC4CCOCC4)C[C@@H]3C2)c2sccc12` [compound 15, 4-(2-fluorophenyl)-N-((3aR,5s,6aS)-2-((tetrahydro-2H-pyran-4-yl)methyl)octahydrocyclopenta[c]pyrrol-5-yl)thieno[2,3-d]pyridazin-7-amine], for which the IC50 was 2.31 nM and the remaining activity at 30 µM is 3%.

For the compound `Fc1cc(F)c(F)c(-c2nnc(N[C@H]3C[C@@H]4CN(CC5CCOCC5)C[C@@H]4C3)c3ccsc23)c1` [compound 16, N-((3aR,5s,6aS)-2-((tetrahydro-2H-pyran-4-yl)methyl)octahydrocyclopenta[c]pyrrol-5-yl)-7-(2,3,5-trifluorophenyl)thieno[2,3-d]pyridazin-4-amine], the IC50 came to 1.71 nM and the remaining activity at 30 µM was 4%.

Consider `Cc1c(-c2nnc(N[C@H]3C[C@@H]4CN(CC5CCOCC5)C[C@@H]4C3)c3ccsc23)ccc2nn(C)cc12` [compound 17, 7-(2,4-dimethyl-2H-indazol-5-yl)-N-((3aR,5s,6aS)-2-((tetrahydro-2H-pyran-4-yl)methyl)octahydrocyclopenta[c]pyrrol-5-yl)thieno[2,3-d]pyridazin-4-amine], for which the IC50 is 0.65 nM and the remaining activity at 30 µM came to 3%.
